Entries after “also recorded” stand apart in the source; their conditions may differ. Peptide text beside a SMILES is read from it.
What was measured:
[1] = test system: Stomach ulcers induced by the Shay procedure; assay: Shay model, stomach ulcer formation and acid secretion (Example 8); format: in vivo, rat; settings: for pH: stomach contents after 24 hours; for % WITH ULCERS: positive if a single lesion is noted; for Ulcer formation and stomach acid secretion, in words: Shay model, compared with saline controls
Description: Stomach ulcers were induced in rats by the Shay procedure. Briefly, the passage between the stomach and the intestine in the rat is tied off, thereby causing a buildup of stomach acid. Ulcer formation is visible after 18-24 hours of ligation.
For treatment, the rats received either GHL-Cu or a derivative in 0.25 ml of saline into the stomach via a gastric feeding tube immediately after the surgical procedure. Control rats received saline only. After 24 hours, the rats were sacrificed, the stomachs were removed and photographed. The acidity of the stomach contents was also measured.
In the experiments reported here, the rats were treated with various doses of glycyl-L-histidyl-L-lysine (GHL), GHL-Cu (2:1), or GHL-Cu (1:1) complex of various analogs of GHL as the 1:1 copper complexes.
Stomach ulcers were induced in groups of rats as described above. The animals were dosed with increasing amounts of either GHL:Cu at a molar ration of 2 moles of GHL to 1 mole of Cu (2:1), equimolar complex (1:1), and GHL without copper. After 24 hours, the stomachs were removed, the pH was determined and the percent of stomachs with visible ulcers was determined.
The presence of ulcers is scored positive if a single lesion is noted, regardless of the size.

[2] = test system: Duodenal ulcers induced by cysteamine; assay: Healing of cysteamine-induced duodenal ulcers (Example 9); format: in vivo, S.D. rats; settings: for Healing of duodenal ulcers, in words: drinking water treatment, compared to controls
Description: Cysteamine will induce chronic duodenal ulcers in rats when injected subcutaneously (Olsen, P. S., Poulsen, S. S., Therkelsen, K., and Nexo, E., Oral administration of synthetic human urogastrone promotes healing of chronic duodenal ulcers in rats, Gastroenterology 90:911-917 (1986)).
Duodenal ulcers were induced in a group of 40 S.D. rats (male and female) by subcutaneous injections of cysteamine (350 mg/kg and 175 mg/kg) 6 hours apart. Saline was injected subcutaneously (5 cc) to provide fluid. Surviving animals (n=34) were followed for 7 days then laparotomies were performed. External examinations of the duodenum were made to determine extent of adhesion of the liver or other surrounding tissues. Animals with duodenal ulcers were randomized (by sex) to receive GHL-Cu (2:1) in distilled water, or plain distilled water. Animals were maintained for 25 days after which they were sedated, stomachs and duodenums removed and dissected for internal inspection. The results were obtained and recorded, specimens immersed in 10% buffered formalin for analysis with a stereomicroscope.
(§1) The following rating scale was used to express severity of ulceration:
(§2) 0--no indication of ulceration
1--mild ulceration, no extension through duodenum
2--moderate ulceration, fixation of surrounding tissue
3--extreme ulceration through duodenum
On the day of laparotomy, 28 rats ([…]) were determined to have significant adhesion of the duodenum to surrounding tissues. These animals were randomized by sex to either the GHL-Cu or control group. Following 25 days of drinking water treatment (total dose per day of 0.6 mg/kg), rats were sedated and prepped for dissection. The stomach and duodenum were removed, notations made as to extent of residual adhesions. Internal inspection of the duodenum was made prior to immersion of specimen in 10% formalin. Results at the time of gross inspection indicated 11 out of 14 control animals had significant residual ulcerations extending to the liver primarily.

[3] = test system: gastric ulcers induced by 95% ethanol; assay: Prevention of ethanol-induced gastric ulcers (Example 10); format: in vivo, SD rats; settings: for Prevention of ethanol-caused gastric irritation and ulceration, in words: pretreatment, 95% ethanol ingestion; for Ulceration after ethanol, in words: stomachs inspected one hour after ethanol
Description: (§3) A series of ethanol induced gastric ulcer studies was conducted. Ulcers were induced by oral administration of 95% ethyl alcohol (Scan. J. Gastroenterol 23:665-671 (1988)). The studies were conducted to determine both the preventative and healing effects of glycl-L-histidyl-L-lysine:Cu.
A dose of 2.0 ml/kg 95% ethanol was chosen to induce gastric ulcers in rats. Prior to the ethanol ingestion, three groups of rats were pretreated with 0.5 ml of 2% glycyl-L-histidyl-L-lysine:Cu (1:1) as follows:
Group 1: 2 hours prior to Ethanol dosing
Group 2: 4 hours prior to Ethanol dosing
Group 3: 6 hours prior to Ethanol dosing
In addition, 4 rats served as controls with no pretreatment. One hour following ethanol administration, the stomachs were removed and inspected for ulceration as described above.

[4] = test system: ulcers induced by 95% ethanol; assay: Healing of ethanol-induced gastric ulcers (Example 10); format: in vivo, rats; settings: for Healing of ethanol-induced ulcers, in words: drinking water treatment, compared to controls; for # animals with rating 0 (no indication of ulceration) / # animals with rating 1 (some irritation) / # animals with rating 2 (small ulcers present) / # animals with rating 3 (large ulcers present): day 7
Description: as §3
The ability of glycyl-L-histidyl-L-lysine:Cu (2:1) to heal ulcers induced by 95% ethanol has also been examined. In this study, ulcers were induced by administration of 4 ml/kg of 95% ethanol. The rats were then treated with glycyl-L-histidyl-L-lysine:Cu (2:1) in the drinking water at a dose of 0.01 mg/ml and 0.1 mg/ml (total dose per day of 1.6 mg/kg and 16 mg/kg, respectively). The rats were terminated at day 7 after ulcer induction and the stomachs examined for the presence of ulcers.
as §1, §2

[5] = test system: Stomach ulcers induced by the Shay procedure (buildup of stomach acid); assay: Shay model, stomach acidity and mucous secretion (Example 7); format: in vivo, rat; design: key to Mucous Production: 0 represented substantially no mucous observed; ++++ represented a very heavy mucous secretion; settings: rats, after 24 hours; for Stomach acidity pH ± standard deviation: 10 mg in 0.25 ml saline intubated into the stomach
Description: Stomach ulcers were induced in rates by the Shay procedure. Briefly stated, the passage between the stomach and the intestine in the rat is tied off, thereby causing a buildup of stomach acid, resulting in ulceration. For treatment, the rats received 10 mg of GHL or GHL-Cu or a derivative thereof in 0.25 ml saline intubated into the stomach. Control rats received saline only. After 24 hours, the stomachs were photographed and the stomach acidity determined.
The results of the experiments are shown in Table 1, which depicts the inhibition of stomach acid accumulation and stimulation of cytoprotective mucous secretion in the rats. The mucous production was visually rated from 0 to ++++, where 0 represented substantially no mucous observed and ++++ represented a very heavy mucous secretion.

[6] = GHL-Cu (2:1) 0.01 mg/ml in drinking water (1.6 mg/kg per day)
[7] = GHL-Cu (2:1) 0.1 mg/ml in drinking water (16 mg/kg per day)
[8] = microscopic examination, 25 days drinking water, 0.6 mg/kg per day

glycyl-L-histidyl-L-lysine n-octyl ester:copper(II) [GHL octyl ester:Cu]
pH ([1]; dose 3 mg into stomach): 3.50 ± 1.18 pH
% WITH ULCERS ([1]; dose 3 mg, after 24 hours): 25%
pH ([1]; dose 10 mg into stomach): 6.18 ± 0.98 pH
% WITH ULCERS ([1]; dose 10 mg, after 24 hours): 0%

L-lysyl-L-histidyl-glycine:copper(II) [LGH-Cu]
Ulcer formation and stomach acid secretion, in words [1]: decreased stomach acid secretion and resulted in fewer visible lesions
pH ([1]; dose 3 mg into stomach): 3.61 ± 1.00 pH
% WITH ULCERS ([1]; dose 3 mg, after 24 hours): 11%
Healing of duodenal ulcers, in words [2]: accelerate the healing of established duodenal ulcers
Prevention of ethanol-caused gastric irritation and ulceration, in words [3]: prevent gastric irritation and ulceration
Healing of ethanol-induced ulcers, in words [4]: accelerate the healing of ulcers

glycyl-L-histidyl-L-lysine:Cu (1:1) [GHL-Cu(1:1)]
Lesion formation, in words (photographs, FIG. 1) ([1]; 10 mg, after 24 hours): complete inhibition of lesion formation
Ulcer formation and stomach acid secretion, in words [1]: inhibited ulcer formation and raised the pH of the stomach contents in a dose responsive manner
pH ([1]; dose 1 mg into stomach): 3.80 ± 1.34 pH
% WITH ULCERS ([1]; dose 1 mg, after 24 hours): 33%
pH ([1]; dose 3 mg into stomach): 4.85 ± 1.17 pH
% WITH ULCERS ([1]; dose 3 mg, after 24 hours): 0%
pH ([1]; dose 10 mg into stomach): 7.23 ± 0.64 pH
% WITH ULCERS ([1]; dose 10 mg, after 24 hours): 0%
Ulceration after ethanol, in words ([3]; 0.5 ml of 2% solution 2 hours prior to 2.0 ml/kg 95% ethanol): No evidence of ulceration; also recorded: totally blocking damage
Ulceration after ethanol, in words ([3]; 0.5 ml of 2% solution 4 hours prior to 2.0 ml/kg 95% ethanol): Significantly better than controls, however, small ulcers were visible
Ulceration after ethanol, in words ([3]; 0.5 ml of 2% solution 6 hours prior to 2.0 ml/kg 95% ethanol): Mixed results

glycyl-L-histidyl-L-lysine:copper(II) [GHL-Cu]
Stomach acidity pH ± standard deviation [5]: 6.94 ± 0.25 pH
Mucous Production ([5]; 10 mg in 0.25 ml saline, visually rated 0 to ++++): ++++
Ulcer formation and stomach acid secretion, in words [1]: decreased stomach acid secretion and resulted in fewer visible lesions
Animals with residual ulcerations at gross inspection ([2]; GHL-Cu (2:1) in drinking water 25 days, 0.6 mg/kg per day, control 11 out of 14): 7 out of 14
Healing of duodenal ulcers, in words [2]: accelerate the healing of established duodenal ulcers
Prevention of ethanol-caused gastric irritation and ulceration, in words [3]: prevent gastric irritation and ulceration
# animals with rating 0 (no indication of ulceration) [4, 6]: 5 animals
# animals with rating 1 (some irritation) [4, 6]: 2 animals
# animals with rating 2 (small ulcers present) [4, 6]: 0 animals
# animals with rating 3 (large ulcers present) [4, 6]: 0 animals
# animals with rating 0 (no indication of ulceration) [4, 7]: 5 animals
# animals with rating 1 (some irritation) [4, 7]: 1 animals
# animals with rating 2 (small ulcers present) [4, 7]: 1 animals
# animals with rating 3 (large ulcers present) [4, 7]: 0 animals
Healing of ethanol-induced ulcers, in words [4]: majority of the animals had no demonstrable ulcers; also recorded: accelerate the healing of ulcers

glycyl-L-histidyl-L-lysine:Cu (2:1) [GHL-Cu(2:1)]
Ulcer formation and stomach acid secretion, in words [1]: inhibited ulcer formation and raised the pH of the stomach contents in a dose responsive manner
pH ([1]; dose 3 mg into stomach): 2.72 ± 1.03 pH
% WITH ULCERS ([1]; dose 3 mg, after 24 hours): 50%
pH ([1]; dose 10 mg into stomach): 6.38 ± 1.01 pH
% WITH ULCERS ([1]; dose 10 mg, after 24 hours): 11%
Healing of duodenal ulcers, in words [2]: the severity was reduced
# animals with rating 0 (no indication of ulceration) [2, 8]: 4 animals
# animals with rating 1 (mild ulceration, no extension through duodenum) [2, 8]: 5 animals
# animals with rating 2 (moderate ulceration, fixation of surrounding tissue) [2, 8]: 3 animals
# animals with rating 3 (extreme ulceration through duodenum) [2, 8]: 2 animals

NCCCC[C@H](NC(=O)[C@H](Cc1c[nH]cn1)NC(=O)CN)C(=O)O [GHL, glycyl-L-histidyl-L-lysine] (H-Gly-His-Lys-OH)
Stomach acidity pH ± standard deviation [5]: 3.26 ± 0.47 pH
pH ([1]; dose 10 mg into stomach): 2.84 ± 0.90 pH
% WITH ULCERS ([1]; dose 10 mg, after 24 hours): 40%

From patent US5023237A, “Methods and compositions for healing ulcers” (priority 1989, dated 1991)
